From US6338843B1, “Biologically active materials” (priority 1997, dated 2002)

Experiments:
[1] = test system: L1210 cells; details: 72 h incubation, MTT
Protocol: L1210 cells were seeded at a density of 1×10^4 cells per well into 96 well ‘v’ bottomed microtiter plates (Costar) in RPMI 1640 tissue culture media (Gibeo) supplemented with 10% Foetal Calf Scrum (FCS) (Gibeo). All incubations were carried out at 37° C. in an atmosphere of 5% CO2.
The cells were then left for 24 h. Prior to being incubated with the polymers the cells were centrifuged at 1000×g for 10 minutes at room temperature. This served to pellet the cells and allow the removal of the media.
Doxorubicin and dextrin doxorubicin were then dissolved in RPMI 1640 containing 10% FCS and filter sterilised through 0.2μ filters (Aerodisk). Following this, the pellet was resuspended in media containing the appropriate concentration of drug or drug conjugate.
The tetrazolium dye MTT was used to assess cell viability. The cells were incubated for 67 h prior to the addition of the MTT. After a further incubation period of 5 h, the cells in suspension were subjected to centrifugation, the media removed and 100 μl of optical grade DMSO (Sigma) was added. The plates were read at 550 mn using a Titerteck plate reader. Results (OD) were expressed as a % of the OD seen in cell cultures containing no polymer.

[2] = test system: rat red blood cells; experiment: Stability of rat red blood cells incubated in vitro (haemoglobin release, % lysis); type: cell-based; details: rat RBC 2% w/v suspension in PBS; relative to Triton X-100 = 100% lysis
Protocol: Dextrins of different molecular weight were incubated with isolated rat red blood cells (RBC) and haemoglobin release detected spectrophotometrically. Various dilutions of the test polymers (dextrins) and of the reference polymer polyethyleneimine were made up in PBS and mixed with an equal volume of fresh 2% w/v suspension of rat RBCs. This preparation was centrifuged at 1500×g for 10 min at room temperature. Then, 100 μl of the supernatant was removed and the levels of haemoglobin quantitated spectrophotometrically at […]. The results illustrated in FIG. 1 were expressed as % lysis relative to that of a Triton X-100 control (Sigma) which gave 100% RBC lysis.

Molecule	toxicity to L1210 cells in vitro [1]	red cell lysis (haemoglobin release) [2]
COc1cccc2c1C(=O)c1c(O)c3c(c(O)c1C2=O)C[C@@](O)(C(=O)CO)C[C@@H]3O[C@H]1C[C@H](N)[C@H](O)[C@H](C)O1 [doxorubicin]	toxic	
Triton X-100		caused haemoglobin release
